Test results as given in PubChem BioAssay (NCI).
Values joined by “and” are separate entries in the source; they are usually repeats but may differ in a detail not shown here. Equal values may be shown once.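 Protocol summary: plate cells (96-well), add compound at 5 concentrations, incubate 48 h, interpolate endpoints linearly. GI50 is the concentration that inhibits growth by half. TGI denotes the concentration required for complete inhibition of growth.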

Experiments:
Assay in all cases: NCI tumour cell line growth inhibition, 48 h
KM20L2 colon = system: KM20L2 colon
RXF-631 renal = system: RXF-631 renal
M19-MEL melanoma = system: M19-MEL melanoma
DMS 273 small cell lung = system: DMS 273 small cell lung
SNB-78 CNS = system: SNB-78 CNS
XF 498 CNS = system: XF 498 CNS
DMS 114 small cell lung = system: DMS 114 small cell lung
MDA-N = system: MDA-N
HOP-18 NSCLC = system: HOP-18 NSCLC

SMILES	TGI (KM20L2 colon)	TGI (RXF-631 renal)	TGI (M19-MEL melanoma)	TGI (DMS 273 small cell lung)	TGI (SNB-78 CNS)	TGI (XF 498 CNS)	TGI (DMS 114 small cell lung)	TGI (MDA-N)	TGI (HOP-18 NSCLC)	other results
O=C(CC(=O)C1=CNc2ccccc2S1)C(=O)Nc1ccc(Cl)cc1	> 50 µM	> 50 µM	> 50 µM	> 50 µM	> 50 µM	> 50 µM	> 50 µM			
COc1ccc2c(=O)cc(-c3ccncc3)oc2c1OC								98.9 µM		
CC(C)CCCC(C)[C@H]1CCC2[C@@H]3CCC4Nc5nocc5C[C@]4(C)C3CC[C@@]21C (some centres undefined)	41.7 µM		33.7 µM	37.3 µM	42.1 µM				34.7 µM	
O=C(O/C(=C(/N=Nc1ccccc1)c1ccccc1)c1ccccc1)c1ccccc1	> 100 µM	> 100 µM			> 100 µM	> 100 µM	> 100 µM		> 100 µM	
CCOC1=C2C(=O)OC(=O)C2C2CCCCC2=C1 (centres undefined)			> 100 µM	> 100 µM	> 100 µM	> 100 µM	> 100 µM			
Cc1cc2c(C)nn(Cc3ccccc3)c2c(C(N)=O)c1C	> 100 µM		> 100 µM	> 100 µM	> 100 µM	> 100 µM	> 100 µM			
COc1cc2ccccc2oc1=O								> 100 µM		
C#CC1(O)C(COP(=O)(O)OC(COCCCCCCCCCCCCCCCCCC)COP(=O)(O)OCC2OC(n3cc(F)c(=O)[nH]c3=O)CC2O)OC(n2ccc(N)nc2=O)C1O (centres undefined)								12.4 µM and 13.7 µM		
O=[N+]([O-])c1ccc2c(c1)Cc1cc(N=Cc3ccc4c(c3)OCO4)ccc1-2								> 100 µM		
O=C1Nc2nc3ccccc3n2N=C2CCCC12 (centres undefined)	> 100 µM	> 100 µM	> 100 µM	> 100 µM	> 100 µM	> 100 µM	> 100 µM			
COC1/C=C/C(C)C(C(C)C(OC)C(C)CCC(=O)C(C)C(C/C=C/N(C)C=O)OC)OC(=O)/C=C/C=C(\C)CC(OC)CC2=CC(=O)O[C@H](C2)C(C)C(OC)CC(OC)/C=C/C(C)C(OC)C1 (some centres undefined)								1.11 µM		GI50 (MDA-N): 0.0472 µM
CC(=O)C(=Cc1ccc(C=C(C(C)=O)C(C)=O)cc1)C(C)=O								5.94 µM		
C[C@]12CCC(=O)C=C1CC[C@@H]1C2CC[C@]2(C)Nc3c(cnn3-c3ccccc3)CC12 (some centres undefined)	> 100 µM	> 100 µM	> 100 µM	> 100 µM	> 100 µM	> 100 µM	> 100 µM			
COC1OC(CBr)C(OC(=O)c2ccccc2)C(O)C1Br (centres undefined)	> 100 µM		> 100 µM	> 100 µM	> 100 µM	> 10 µM			> 100 µM	
COc1c(O)cc2oc(-c3ccc(O)cc3)cc(=O)c2c1O								> 100 µM		
O=C1C2C3C=C4c5ccccc5N(c5ccccc5)C4(C2C(=O)N1c1ccc(Cl)cc1)[C@H]1C(=O)N(c2ccc(Cl)cc2)C(=O)[C@@H]31 (some centres undefined)	> 100 µM	> 100 µM	> 100 µM	> 100 µM	> 100 µM	> 100 µM	> 100 µM		> 100 µM	
O=CN/C=C/c1cccc(O)c1	> 100 µM		> 100 µM	> 100 µM	> 100 µM	> 100 µM	> 100 µM	> 85 µM	> 100 µM	
C1COCCN1.C1COCCN1.NC1CCCCC1N.[Cl-].[Pt+2] (centres undefined)	> 100 µM		> 100 µM		> 100 µM				> 100 µM	GI50 (KM20L2 colon): > 100 µM; GI50 (M19-MEL melanoma): > 100 µM; GI50 (HOP-18 NSCLC): > 100 µM; GI50 (SNB-78 CNS): > 100 µM
Cc1ccc(SSc2ccc(C)cc2C(=O)O)c(C(=O)O)c1	> 100 µM	> 100 µM	> 100 µM	> 100 µM	> 100 µM					
CC1CC2OC(=O)C(C)C2CC2(C)C(OC3OC(CO)C(O)C(O)C3O)OCCC12 (centres undefined)								> 100 µM		
Cc1cc(NCCCCCCNc2cc(C)nc3cc(N(C)C)ccc23)c2ccc(N(C)C)cc2n1		> 100 µM	> 100 µM	29.5 µM		59 µM				
c1ccc(C(c2ccccc2)c2cccnc2)cc1	> 100 µM	> 100 µM	> 100 µM	> 100 µM	> 100 µM		> 100 µM		> 100 µM	
COc1ccc(C2CC(C)(O)Oc3cc4c(cc32)OCO4)cc1 (centres undefined)								36.4 µM		
